# Reference: US5916876A, “Peptide inhibitors of leukocyte adhesion” (Centocor, Inc., priority 1994, dated 1999)
# Residues, ends and D or L forms follow the SMILES beside them.
# Biological target: T1, human P-selectin (Homo sapiens, UniProt P16109)
# T1 construct: from tissue; host or cells: outdated human platelet packs from a blood bank
# T1 sequence (P16109 42-830): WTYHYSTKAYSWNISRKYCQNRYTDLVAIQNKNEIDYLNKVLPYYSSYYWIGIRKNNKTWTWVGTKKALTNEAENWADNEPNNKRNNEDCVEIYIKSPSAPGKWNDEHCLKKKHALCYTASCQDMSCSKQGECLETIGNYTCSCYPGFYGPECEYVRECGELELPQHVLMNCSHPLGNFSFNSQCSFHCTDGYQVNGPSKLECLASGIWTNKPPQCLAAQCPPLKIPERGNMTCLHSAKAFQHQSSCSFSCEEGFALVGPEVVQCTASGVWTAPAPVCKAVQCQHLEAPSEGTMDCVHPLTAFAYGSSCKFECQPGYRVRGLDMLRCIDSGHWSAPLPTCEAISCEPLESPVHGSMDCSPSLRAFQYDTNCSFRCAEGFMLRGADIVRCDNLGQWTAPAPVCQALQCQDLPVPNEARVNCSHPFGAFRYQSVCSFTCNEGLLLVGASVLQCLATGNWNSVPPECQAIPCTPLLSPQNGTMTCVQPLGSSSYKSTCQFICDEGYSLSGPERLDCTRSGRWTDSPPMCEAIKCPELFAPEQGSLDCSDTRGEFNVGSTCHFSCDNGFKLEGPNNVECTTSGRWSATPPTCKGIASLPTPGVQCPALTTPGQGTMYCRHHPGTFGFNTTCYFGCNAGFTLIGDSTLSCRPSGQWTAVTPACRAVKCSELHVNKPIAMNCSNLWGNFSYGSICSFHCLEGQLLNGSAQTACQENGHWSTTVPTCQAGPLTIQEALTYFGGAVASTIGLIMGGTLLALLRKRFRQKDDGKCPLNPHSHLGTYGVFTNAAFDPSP
# Test: Neutrophil adhesion to purified P-selectin immobilized on plastic wells (myeloperoxidase readout)
# Format: cell-based
# Details: inhibition of binding of human neutrophils to human P-selectin; head: 0.3 μM peptide, text b193: 300 μM; read-out: % INHIBITION AT 0.3 μM PEPTIDE CONC.
# Description: Peptides can be screened for their ability to inhibit adhesion to cells, for example, neutrophil adhesion to purified P-selectin immobilized on plastic wells, using the assay described by Geng, et al., Nature 343, 757-760 (1990).
# Human neutrophils are isolated from heparinized whole blood by density gradient centrifugation on Mono-Poly resolving media, Flow Laboratories. Neutrophil suspensions are greater than 98% pure and greater than 95% viable by trypan blue exclusion. For adhesion assays, neutrophils are suspended at a concentration of 2×10^6 cells/mL in Hanks' balanced salt solution containing 1.26 mM Ca^2+ and 0.81 mM Mg^2+ (HBSS, Gibco) with […] human serum albumin (HBSS/HSA). Adhesion assays are conducted in triplicate in 96-well microtiter plates, Corning, incubated at 4° C. overnight with 50 microliters of various protein solutions.
# P-selectin is isolated from human platelet lysates by immunoaffinity chromatography on antibody S12-Sepharose™ and ion-exchange chromatography on a Mono-Q™ column (FLPC, Pharmacia Fine Chemicals), as follows.
# Outdated human platelet packs (100 units) obtained from a blood bank and stored at 4° C. are pooled, adjusted to 5 mM EDTA at pH 7.5, centrifuged at 4,000 rpm for 30 minutes in 1 liter bottles, then washed three times with 1 liter of 0.1 M NaCl, 20 mM Tris pH 7.5 (TBS), 5 mM EDTA, 5 mM benzamidine.
# The pellets are then resuspended in a minimum amount of wash buffer and made 1 mM in DIFP, then frozen in 50 mL screwtop tubes at -80° C. The frozen platelets are thawed and resuspended in 50 mL TBS, 5 mM benzamidine, 5 mM EDTA pH 7.5, 100 µM leupeptin. The suspension is frozen and thawed two times in a dry ice-acetone bath using a 600 mL lyophilizing flask, then homogenized in a glass/teflon mortar and pestle and made 1 mM in DIFP. The NaCl concentration is adjusted to 0.5 M with a stock solution of 4 M NaCl. After stirring the suspension at 4° C., it is centrifuged in polycarbonate tubes at 33,000 rpm for 60 minutes at 4° C. The supernatant (0.5 M NaCl wash) is removed and saved; this supernatant contains the soluble form of P-selectin. Care is taken not to remove the top part of the pellet with the supernatant. The pellets are then homogenized in extraction buffer (TBS, 5 mM benzamidine, 5 mM EDTA, pH 7.5, 100 μM leupeptin, 2% Triton X-100). After centrifugation at 19,500 rpm for 25 minutes at 4° C., the supernatant is removed. The extraction procedure is repeated with the pellet and the supernatant is combined with the first supernatant. The combined extracts, which contain the membrane form of P-selectin, are adjusted to 0.5 M NaCl.
# The soluble fraction (0.5 M NaCl wash) and the membrane extract (also adjusted to 0.5 M NaCl) are absorbed with separate pools of the monoclonal antibody S12 (directed to P-selectin) previously coupled to Affigel (Biorad) at 5 mg/mL for 2 hours at 4° C. After letting the resins settle, the supernatants are removed. The S12 Affigel containing bound GMP-140 is then loaded into a column and washed overnight at 4° C. with 400 mL of 0.5 M NaCl, 20 mM Tris pH 7.5, 0.01% Lubrol PX.
# Bound P-selectin is eluted from the S12 Affigel with 100 mL of 80% ethylene glycol, 1 mM MES pH 6.0, 0.01% Lubrol PX. Peak fractions with absorbance at 280 nm are pooled. Eluates are dialyzed against TBS with 0.05% Lubrol, then applied to a Mono Q column (FPLC from Pharmacia). The concentrated protein is step eluted with 2 M NaCl, 20 mM Tris pH 7.5 (plus 0.05% Lubrol PX for the membrane fraction). Peak fractions are dialyzed into TBS pH 7.5 (plus 0.05% Lubrol PX for the membrane fraction).
# P-selectin is plated at 5 micrograms/mL and the control proteins: human serum albumin (Alb), platelet glycoprotein IIb/IIIa (IIb), von Willebrand factor (vWF), fibrinogen (FIB), thrombomodulin (TM), gelatin (GEL) or human serum (HS), are added at 50 micrograms/mL. […]
row,SMILES,inhibition at 300 µM
1,"CC(C)[C@H](NC(=O)[C@@H](N)CCCCN)C(=O)N[C@@H](CCC(N)=O)C(=O)N1CCC[C@H]1C(=O)N[C@@H](Cc1ccc(O)cc1)C(=O)N[C@@H](Cc1ccc(O)cc1)C(=O)N[C@@H](CO)C(=O)N[C@@H](CO)C(=O)N[C@@H](Cc1ccc(O)cc1)C(=O)N[C@@H](Cc1ccc(O)cc1)C(N)=O [SEQ ID NO: 22, Lys--Val--Gln--Pro--Tyr--Tyr--Ser--Ser--Tyr--Tyr-NH2] (H-KVQPYYSSYY-NH2)",29%
2,"CC(C)C[C@H](NC(=O)[C@@H](NC(=O)[C@@H](N)CCCCN)C(C)C)C(=O)N1CCC[C@H]1C(=O)N[C@@H](Cc1ccc(O)cc1)C(=O)N[C@@H](Cc1ccc(O)cc1)C(=O)N[C@@H](CO)C(=O)N[C@@H](C)C(=O)N[C@@H](Cc1ccc(O)cc1)C(=O)N[C@@H](Cc1ccc(O)cc1)C(N)=O [SEQ ID NO: 14, Lys--Val--Leu--Pro--Tyr--Tyr--Ser--Ala--Tyr--Tyr-NH2] (H-KVLPYYSAYY-NH2)",18%
3,"CC[C@H](C)[C@H](NC(=O)[C@H](CO)NC(=O)[C@H](CC(N)=O)NC(=O)[C@H](CC(C)C)NC(=O)[C@H](Cc1ccc(O)cc1)NC(=O)[C@@H](N)CCC(=O)O)C(=O)N[C@@H](CC(C)C)C(=O)N[C@@H](CO)C(=O)N[C@@H](Cc1ccc(O)cc1)C(=O)N[C@@H](CO)C(=O)N1CCC[C@H]1C(=O)N[C@@H](CO)C(=O)N[C@@H](Cc1ccc(O)cc1)C(=O)N[C@@H](Cc1ccc(O)cc1)C(=O)N[C@@H](Cc1c[nH]c2ccccc12)C(N)=O [SEQ ID NO: 23, Glu--Tyr--Leu--Asn--Ser--Ile--Leu--Ser--Tyr--Ser--Pro--Ser--Tyr--Tyr--Trp-NH2] (H-EYLNSILSYSPSYYW-NH2)",54%
4,"CC(C)C[C@H](NC(=O)[C@@H](NC(=O)[C@@H](N)CCCCN)C(C)C)C(=O)N1CCC[C@H]1C(=O)N[C@@H](Cc1ccc(O)cc1)C(=O)NCC(=O)N[C@@H](CO)C(=O)N[C@@H](CO)C(=O)N[C@@H](Cc1ccc(O)cc1)C(=O)N[C@@H](Cc1ccc(O)cc1)C(N)=O [SEQ ID NO: 19, Lys--Val--Leu--Pro--Tyr--Gly--Ser--Ser--Tyr--Tyr-NH2] (H-KVLPYGSSYY-NH2)",34%
5,"CC(C)C[C@H](NC(=O)[C@@H](NC(=O)[C@@H](N)CCCCN)C(C)C)C(=O)N1CCC[C@H]1C(=O)N[C@@H](Cc1ccc(O)cc1)C(=O)N[C@@H](Cc1ccc(O)cc1)C(=O)N[C@@H](CO)C(=O)N[C@@H](CO)C(=O)N[C@@H](Cc1ccc(O)cc1)C(=O)N[C@@H](Cc1ccc(O)cc1)C(=O)N[C@H](C(N)=O)C(C)C [SEQ ID NO: 5, Lys--Val--Leu--Pro--Tyr--Tyr--Ser--Ser--Tyr--Tyr--Val-NH2] (H-KVLPYYSSYYV-NH2)",102%
6,"CC(C)C[C@H](NC(=O)[C@@H](NC(=O)[C@H](CCCCN)NC(=O)[C@H](CC(N)=O)NC(=O)[C@@H](N)CC(C)C)C(C)C)C(=O)N1CCC[C@H]1C(=O)N[C@@H](Cc1ccc(O)cc1)C(=O)N[C@@H](Cc1ccc(O)cc1)C(=O)N[C@@H](CO)C(=O)N[C@@H](CO)C(=O)N[C@@H](Cc1ccc(O)cc1)C(=O)N[C@@H](Cc1ccc(O)cc1)C(=O)N[C@H](C(N)=O)C(C)C [SEQ ID NO: 3, Leu--Asn--Lys--Val--Leu--Pro--Tyr--Tyr--Ser--Ser--Tyr--Tyr--Val-NH2] (H-LNKVLPYYSSYYV-NH2)",100%
7,"CC(C)C[C@H](NC(=O)[C@@H](N)C(C)C)C(=O)N1CCC[C@H]1C(=O)N[C@@H](Cc1ccc(O)cc1)C(=O)N[C@@H](Cc1ccc(O)cc1)C(=O)N[C@@H](CO)C(=O)N[C@@H](CO)C(=O)N[C@@H](Cc1ccc(O)cc1)C(=O)N[C@@H](Cc1ccc(O)cc1)C(=O)N[C@H](C(N)=O)C(C)C [SEQ ID NO: 10, Val--Leu--Pro--Tyr--Tyr--Ser--Ser--Tyr--Tyr--Val-NH2] (H-VLPYYSSYYV-NH2)",66%
8,"CC(C)C[C@H](NC(=O)[C@H](Cc1ccc(O)cc1)NC(=O)[C@@H](N)CC(=O)O)C(=O)N[C@@H](CC(N)=O)C(=O)N[C@@H](CCCCN)C(=O)N[C@H](C(=O)N[C@@H](CC(C)C)C(=O)N1CCC[C@H]1C(=O)N[C@@H](Cc1ccc(O)cc1)C(=O)N[C@@H](Cc1ccc(O)cc1)C(=O)N[C@@H](CO)C(=O)N[C@@H](CO)C(=O)N[C@@H](Cc1ccc(O)cc1)C(=O)N[C@@H](Cc1ccc(O)cc1)C(N)=O)C(C)C [SEQ ID NO: 6, Asp--Tyr--Leu--Asn--Lys--Val--Leu--Pro--Tyr--Tyr--Ser--Ser--Tyr--Tyr-NH2] (H-DYLNKVLPYYSSYY-NH2)",61%
